Consider one compound from patent US20240058312A1, “METHODS AND MATERIALS FOR TREATING BONE LOSS” (The Penn State Research Foundation, priority 2021, published 2024).

Molecules are shown by their SMILES.

Assay [1] has as its system C57BL/6J mice with sciatic nerve, biceps femoris and quadriceps femoris muscle crush injury. The assay is described as follows: DEXA scanning of tibial bone after sciatic nerve and muscle crush injury. It is filed as in vivo. The note with it: 40 μg/mouse/day IP for 21 days. The procedure: Ten-week-old male C57BL/6J mice (Jackson Laboratories, Bar Harbor, Maine) weighing 25±3 g were used. Sciatic nerve crush injury was performed with muscle crush injury as described elsewhere (Govindappa et al., Int. Immunopharmacol., 82:106330 (2020)). Briefly, after intraperitoneal (IP) ketamine (100 mg/kg)/xylazine (10 mg/kg) anesthesia, the right hindlimb was shaved and prepared with alcohol swabs and povidone-iodine (Betadine). Using a stereo zoom binocular microscope, a lateral skin incision (˜3 cm) was made along the length of the femur and the sciatic nerve (SN) was bluntly exposed through the iliotibial band. Nerve crush injury was performed ˜3 mm proximal to the SN trifurcation and muscle crush injury was performed at the center of Biceps femoris (BF) and Quadriceps femoris (QF) muscle using calibrated forceps (5 mm tip width; 18-1107, Miltex Instruments) for 30 seconds (nerve) and 60 seconds (muscles), respectively. Uninjured contralateral normal limbs were kept without injury as controls. The skin was closed using surgical staples and post-operative slow-release buprenorphine (0.05 mg/kg) was given subcutaneously to all animals as an analgesic. […]
The data were analyzed using one-way and two-way analysis of variance (ANOVA) using GraphPad Prism Version 8.2.0. […]

Assay [2] shares this test system. The experiment in a line: micro-CT of tibial bone microarchitecture after sciatic nerve and muscle crush injury. It counts as in vivo. The note with it: tibial metaphysis, 40 μg/mouse/day IP for 21 days, vs. saline. The procedure: Ten-week-old male C57BL/6J mice (Jackson Laboratories, Bar Harbor, Maine) weighing 25±3 g were used. Sciatic nerve crush injury was performed with muscle crush injury as described elsewhere (Govindappa et al., Int. Immunopharmacol., 82:106330 (2020)). Briefly, after intraperitoneal (IP) ketamine (100 mg/kg)/xylazine (10 mg/kg) anesthesia, the right hindlimb was shaved and prepared with alcohol swabs and povidone-iodine (Betadine). Using a stereo zoom binocular microscope, a lateral skin incision (˜3 cm) was made along the length of the femur and the sciatic nerve (SN) was bluntly exposed through the iliotibial band. Nerve crush injury was performed ˜3 mm proximal to the SN trifurcation and muscle crush injury was performed at the center of Biceps femoris (BF) and Quadriceps femoris (QF) muscle using calibrated forceps (5 mm tip width; 18-1107, Miltex Instruments) for 30 seconds (nerve) and 60 seconds (muscles), respectively. Uninjured contralateral normal limbs were kept without injury as controls. The skin was closed using surgical staples and post-operative slow-release buprenorphine (0.05 mg/kg) was given subcutaneously to all animals as an analgesic.
The experimental animals (6 animals/group) were randomized to normal saline (0.1 mL/mouse) and 4-AP (40 μg/mouse) treatment groups. 4-AP was given by IP injection immediately after surgery and daily for 21 days. Animals were euthanized using isoflurane on post-injury day 22 to harvest hindlimbs. Harvested hindlimbs were subjected to dual-energy X-ray absorptiometry (DEXA) and microcomputed tomography (micro-CT) scanning to analyze the bone quality.
The data were analyzed using one-way and two-way analysis of variance (ANOVA) using GraphPad Prism Version 8.2.0. All values are presented as mean±SEM. Probability (P) values of <0.05 were considered statistically significant.

For `Nc1ccncc1` [4-AP, 4-aminopyridine], in assay [1] (combined nerve and muscle crush injury, P<0.05 vs. saline, FIG. 1A), the tibial bone volume result was “significantly improves”. Also, the “BMD (bone mineral density) of tibial bone” value in assay [1] (nerve and muscle injury associated tibial bone, mean, P<0.05 vs. saline (76.57)) was 79.75 mg/cm^2. Besides, in assay [2], the bone volume fraction result is given as “upregulating”, the “structural model index (SMI)” value is recorded as “downregulated”, the trabecular separation result is reported as “downregulated” and the trabecular thickness result is recorded as “upregulating”.
